The values below come from patent US20230108093A1, “METHODS FOR PREDICTING AND TREATING LAMENESS” (Novus International, Inc., priority 2021, published 2023).

This assay deals with barrows. Kind of assay: Fast growth study (Example 2): average daily growth, gait score, lameness incidence. It is filed as in vivo, pig. The settings on record: pigs fed RAC 10 ppm last 25 days, regardless of diet. The protocol: A study was conducted in 144 healthy barrows, in which serum biomarkers were measured over 69 days at day 0, day 28, and day 69. Fast growth was induced in some pigs as explained below.
The study was a 2×2 factorial study. The first factor was diet. Pigs were fed either inorganic trace minerals (ITM) or Mintrex° (MTX), an organic mineral. The ITM included a ratio of 120-20-40 ppm Zn—Cu—Mn. The MTX included a ratio of 80-10-20 ppm Zn—Cu—Mn.
The second factor was feeding ractopamine (RAC; a beta-adrenergic agonist) to induce fast growth. Pigs were fed ractopamine at either 0 ppm or 10 ppm during the last 25 days of the trial.

The structures appear in SMILES notation.

Take `CC(CCc1ccc(O)cc1)NCC(O)c1ccc(O)cc1` (racemic) [RAC, ractopamine]: the “ADG (average daily growth)” value is given as “increased”.
